Assay results published in patent publication US10336732B2, “1-heterocyclyl isochromanyl compounds and analogs for treating CNS disorders” (Sunovion Pharmaceuticals Inc., priority 2015, dated 2019).

Test system: mice
Experiment: Neuropharmacological assay (SmartCube), behavioral signature of compound-treated mice
Type: in vivo
Details: i.p. 15 min before behavioral test, most efficacious dose(s) of 3 doses
Description: Neurosci. […] As reported in Roberds, because psychiatric diseases generally result from disorders of cell-cell communication or circuitry, intact systems are useful in detecting improvement in disease-relevant endpoints. These endpoints are typically behavioral in nature, often requiring human observation and interpretation. To facilitate testing of multiple compounds for behavioral effects relevant to psychiatric disease, PsychoGenics, Inc. (Tarrytown, N.Y., “PGI”) developed SmartCube™, an automated system in which behaviors of compound-treated mice are captured by digital video and analyzed with computer algorithms. […] PGI Analytical Systems uses data from SmartCube™ to compare the behavioral signature of a test compound to a database of behavioral signatures obtained using a large set of diverse reference compounds. (The composition of the database as well as validation of the method is further described in Roberds). In this way, the neuropharmacological effects of a test compound can be predicted by similarity to major classes of compounds, such as antipsychotics, anxiolytics and antidepressants.
The SmartCube™ system produces an activity signature indicating the probability that the activity of the test compound at the administered dose matches a given class of neuropharmacological agents. (See, e.g., Roberds, FIGS. 2 and 3). The test compound is simultaneously compared against multiple classes of agents; thus, a separate probability is generated for each behavioral effect measured (e.g., anxiolytic activity, analgesic activity, etc.). In Table 4, these probabilities are reported for each behavioral effect measured as follows:
Provided compounds were dissolved in a mixture of Pharmasolve™ (N-methyl-2-pyrrolidone), polyethylene glycol and propylene glycol, and were injected i.p. 15 min. before the behavioral test. For each compound, injections were administered at 3 different doses. For each behavioral effect measured, results for the most efficacious dose(s) are presented.

SMILES | AD: ADHD (probability that behavioral signature matches class) | AG: analgesic (probability that behavioral signature matches class) | AX: anxiolytic (probability that behavioral signature matches class) | CE: cognitive enhancer (probability that behavioral signature matches class) | DP: anti-depressant (probability that behavioral signature matches class) | HA: hallucinogen (probability that behavioral signature matches class) | MS: mood stabilizer (probability that behavioral signature matches class) | PS: anti-psychotic (probability that behavioral signature matches class) | SD: sedative hypnotic (probability that behavioral signature matches class) | UN: uncharacterized CNS activity (probability that behavioral signature matches class)
Fc1cccc2c1CCO[C@@H]2[C@@H]1CCCN1 [Compound I-14, (S)-2-((S)-5-fluoroisochroman-1-yl)pyrrolidine] | + (LOQ ≤ + <5%) | ++ (5% ≤ ++ <25%) | ++ (5% ≤ ++ <25%) | ++ (5% ≤ ++ <25%) | +++ (25% ≤ +++ <50%) | + (LOQ ≤ + <5%) | ++ (5% ≤ ++ <25%) | +++ (25% ≤ +++ <50%) | + (LOQ ≤ + <5%) | + (LOQ ≤ + <5%)
Fc1cccc2c1CCO[C@H]2[C@H]1CCCN1 [Compound I-15, (R)-2-((R)-5-fluoroisochroman-1-yl)pyrrolidine] | + (LOQ ≤ + <5%) | ++ (5% ≤ ++ <25%) | +++ (25% ≤ +++ <50%) | ++ (5% ≤ ++ <25%) | ++ (5% ≤ ++ <25%) | + (LOQ ≤ + <5%) | + (LOQ ≤ + <5%) | ++ (5% ≤ ++ <25%) | + (LOQ ≤ + <5%) | + (LOQ ≤ + <5%)
Fc1cccc2c1CCO[C@@H]2[C@H]1CCCN1 [Compound I-16, (R)-2-((S)-5-fluoroisochroman-1-yl)pyrrolidine] | + (LOQ ≤ + <5%) | + (LOQ ≤ + <5%) | ++ (5% ≤ ++ <25%) | ++ (5% ≤ ++ <25%) | ++ (5% ≤ ++ <25%) | + (LOQ ≤ + <5%) | ++ (5% ≤ ++ <25%) | +++ (25% ≤ +++ <50%) | + (LOQ ≤ + <5%) | +++ (25% ≤ +++ <50%)
c1ccc2c(c1)CCO[C@@H]2[C@@H]1CCCN1 [Compound I-17, (S)-2-((S)-isochroman-1-yl)pyrrolidine] | + (LOQ ≤ + <5%) | + (LOQ ≤ + <5%) | ++ (5% ≤ ++ <25%) | ++ (5% ≤ ++ <25%) | +++ (25% ≤ +++ <50%) | + (LOQ ≤ + <5%) | + (LOQ ≤ + <5%) | ++ (5% ≤ ++ <25%) | + (LOQ ≤ + <5%) | + (LOQ ≤ + <5%)
c1ccc2c(c1)CCO[C@H]2[C@@H]1CCCN1 [Compound I-18, (S)-2-((R)-isochroman-1-yl)pyrrolidine] | + (LOQ ≤ + <5%) | ++ (5% ≤ ++ <25%) | +++ (25% ≤ +++ <50%) | ++ (5% ≤ ++ <25%) | ++ (5% ≤ ++ <25%) | + (LOQ ≤ + <5%) | ++ (5% ≤ ++ <25%) | +++ (25% ≤ +++ <50%) | ++ (5% ≤ ++ <25%) | ++ (5% ≤ ++ <25%)
c1ccc2c(c1)CCO[C@H]2[C@H]1CCCN1 [Compound I-19, (R)-2-((R)-isochroman-1-yl)pyrrolidine] | + (LOQ ≤ + <5%) | + (LOQ ≤ + <5%) | ++ (5% ≤ ++ <25%) | ++ (5% ≤ ++ <25%) | + (LOQ ≤ + <5%) | + (LOQ ≤ + <5%) | + (LOQ ≤ + <5%) | ++++ (50% ≤ ++++) | + (LOQ ≤ + <5%) | ++++ (50% ≤ ++++)
c1ccc2c(c1)CCO[C@@H]2[C@H]1CCCN1 [Compound I-20, (R)-2-((S)-isochroman-1-yl)pyrrolidine] | + (LOQ ≤ + <5%) | ++ (5% ≤ ++ <25%) | ++ (5% ≤ ++ <25%) | ++ (5% ≤ ++ <25%) | ++ (5% ≤ ++ <25%) | + (LOQ ≤ + <5%) | ++ (5% ≤ ++ <25%) | ++++ (50% ≤ ++++) | ++ (5% ≤ ++ <25%) | +++ (25% ≤ +++ <50%)
Cc1cccc2c1[C@@H]([C@@H]1CCCN1)OCC2 [Compound I-21, (S)-2-((S)-8-methylisochroman-1-yl)pyrrolidine] | + (LOQ ≤ + <5%) | ++ (5% ≤ ++ <25%) | ++ (5% ≤ ++ <25%) | + (LOQ ≤ + <5%) | ++ (5% ≤ ++ <25%) | + (LOQ ≤ + <5%) | + (LOQ ≤ + <5%) | ++ (5% ≤ ++ <25%) | + (LOQ ≤ + <5%) | +++ (25% ≤ +++ <50%)

Same assay, conditions: i.p. 15 min before behavioral test, most efficacious dose(s) of 3 doses

SMILES | XG: anxiogenic (probability that behavioral signature matches class)
Fc1cccc2c1CCO[C@@H]2[C@@H]1CCCN1 [Compound I-14, (S)-2-((S)-5-fluoroisochroman-1-yl)pyrrolidine] | + (LOQ ≤ + <5%)
Fc1cccc2c1CCO[C@H]2[C@H]1CCCN1 [Compound I-15, (R)-2-((R)-5-fluoroisochroman-1-yl)pyrrolidine] | + (LOQ ≤ + <5%)
Fc1cccc2c1CCO[C@@H]2[C@H]1CCCN1 [Compound I-16, (R)-2-((S)-5-fluoroisochroman-1-yl)pyrrolidine] | + (LOQ ≤ + <5%)
c1ccc2c(c1)CCO[C@@H]2[C@@H]1CCCN1 [Compound I-17, (S)-2-((S)-isochroman-1-yl)pyrrolidine] | + (LOQ ≤ + <5%)
c1ccc2c(c1)CCO[C@H]2[C@@H]1CCCN1 [Compound I-18, (S)-2-((R)-isochroman-1-yl)pyrrolidine] | + (LOQ ≤ + <5%)
c1ccc2c(c1)CCO[C@H]2[C@H]1CCCN1 [Compound I-19, (R)-2-((R)-isochroman-1-yl)pyrrolidine] | + (LOQ ≤ + <5%)
c1ccc2c(c1)CCO[C@@H]2[C@H]1CCCN1 [Compound I-20, (R)-2-((S)-isochroman-1-yl)pyrrolidine] | + (LOQ ≤ + <5%)
Cc1cccc2c1[C@@H]([C@@H]1CCCN1)OCC2 [Compound I-21, (S)-2-((S)-8-methylisochroman-1-yl)pyrrolidine] | + (LOQ ≤ + <5%)
